ChEMBL document CHEMBL3885861, “Open TG-GATES”

Organism: Rattus norvegicus
Experiment: Open TG-GATES - Regimen: Daily Repeat
Assay type: toxicity, organism-based, Sprague-Dawley
Set-up: regimen Daily Repeat, gender Male, age 6 weeks
Settings: in vivo, po, route gavage; for APTT / Bas / Eos / Fbg / Ht / Lym / MCHC / MCV / Mono / PT / Plat / RBC / Ret / WBC: tissue Blood; for KIDNEY_L / KIDNEY_R / KIDNEY_TOTAL: tissue Kidney; for LIVER: tissue Liver; for ALP / ALT / AST / BUN / CRE / Ca / Cl / DBIL / IP / LDH / Na / PL / RALB / TBIL / TC / TG / TP / gamma-GTP: tissue Plasma
[1] = 120 mg/kg, 72 h, dose level Middle, time 3 day
[2] = 120 mg/kg, […], dose level Middle, time 7 day
[3] = 120 mg/kg, […], dose level Middle, time 14 day
[4] = 120 mg/kg, […], dose level Middle, time 28 day
[5] = 400 mg/kg, 72 h, dose level High, time 3 day
[6] = 400 mg/kg, […], dose level High, time 7 day
[7] = 400 mg/kg, […], dose level High, time 14 day
[8] = 400 mg/kg, […], dose level High, time 28 day

CC(C)N(CCC(C(N)=O)(c1ccccc1)c1ccccn1)C(C)C (stereo not given) [DISOPYRAMIDE]
APTT [1]: 20.4 s
Bas [1]: 0%
Eos [1]: 1%
Fbg [1]: 319.6 mg/dL
Ht [1]: 41.1%
Lym [1]: 78.4%
MCHC [1]: 32.2%
MCV [1]: 62.6 fL
Mono [1]: 2.6%
PT [1]: 15.5 s
Plat [1]: 125 x10_4/uL
RBC [1]: 657.8 x10_4/ul
Ret [1]: 5.3%
WBC [1]: 107.5 x10_2/uL
KIDNEY_L [1]: 1 g
KIDNEY_R [1]: 1 g
KIDNEY_TOTAL [1]: 2 g
LIVER [1]: 10.6 g
ALP [1]: 1634.4 IU/L
ALT [1]: 52.4 IU/L
AST [1]: 74 IU/L
BUN [1]: 15.6 mg/dL
CRE [1]: 0.2 mg/dL
Ca [1]: 10.8 mg/dL
Cl [1]: 106.6 meq/L
DBIL [1]: 0 mg/dL
IP [1]: 7.7 mg/dL
LDH [1]: 174.6 IU/L
Na [1]: 142.8 meq/L
PL [1]: 151.2 mg/dL
RALB [1]: 2.9 g/dL
TBIL [1]: 0 mg/dL
TC [1]: 79.2 mg/dL
TG [1]: 111.8 mg/dL
TP [1]: 5.4 g/dL
gamma-GTP [1]: 1.6 IU/L
TERMINAL_BW [2]: 247.4 g
TERMINAL_BW [3]: 313.2 g
TERMINAL_BW [4]: 369.7 g
APTT [2]: 21.5 s
Bas [2]: 0%
Eos [2]: 1%
Fbg [2]: 327.2 mg/dL
Ht [2]: 41%
Lym [2]: 82%
MCHC [2]: 32.6%
MCV [2]: 59.6 fL
Mono [2]: 1.8%
PT [2]: 15.8 s
Plat [2]: 116.6 x10_4/uL
RBC [2]: 688.8 x10_4/ul
Ret [2]: 5.7%
WBC [2]: 102 x10_2/uL
APTT [3]: 23.1 s
Bas [3]: 0%
Eos [3]: 0.8%
Fbg [3]: 331.4 mg/dL
Ht [3]: 41.2%
Lym [3]: 79.8%
MCHC [3]: 32.5%
MCV [3]: 58.9 fL
Mono [3]: 2.4%
PT [3]: 15.5 s
Plat [3]: 117.3 x10_4/uL
RBC [3]: 700.2 x10_4/ul
Ret [3]: 4.5%
WBC [3]: 125.1 x10_2/uL
APTT [4]: 24.7 s
Bas [4]: 0%
Eos [4]: 1%
Fbg [4]: 323.2 mg/dL
Ht [4]: 42.5%
Lym [4]: 79.2%
MCHC [4]: 33.7%
MCV [4]: 55.5 fL
Mono [4]: 2.4%
PT [4]: 15.2 s
Plat [4]: 103.8 x10_4/uL
RBC [4]: 768.2 x10_4/ul
Ret [4]: 2.6%
WBC [4]: 105.7 x10_2/uL
KIDNEY_L [2]: 1.1 g
KIDNEY_R [2]: 1.1 g
KIDNEY_TOTAL [2]: 2.2 g
KIDNEY_L [3]: 1.2 g
KIDNEY_R [3]: 1.3 g
KIDNEY_TOTAL [3]: 2.5 g
KIDNEY_L [4]: 1.4 g
KIDNEY_R [4]: 1.5 g
KIDNEY_TOTAL [4]: 2.9 g
LIVER [2]: 11.4 g
LIVER [3]: 14.2 g
LIVER [4]: 15.6 g
ALP [2]: 1449.8 IU/L
ALT [2]: 48.2 IU/L
AST [2]: 77.4 IU/L
BUN [2]: 16.4 mg/dL
CRE [2]: 0.2 mg/dL
Ca [2]: 10.6 mg/dL
Cl [2]: 106.2 meq/L
DBIL [2]: 0 mg/dL
IP [2]: 7.5 mg/dL
LDH [2]: 167.8 IU/L
Na [2]: 141.6 meq/L
PL [2]: 145 mg/dL
RALB [2]: 3 g/dL
TBIL [2]: 0 mg/dL
TC [2]: 75.8 mg/dL
TG [2]: 107.8 mg/dL
TP [2]: 5.5 g/dL
gamma-GTP [2]: 1.4 IU/L
ALP [3]: 1779.4 IU/L
ALT [3]: 41.4 IU/L
AST [3]: 64.8 IU/L
BUN [3]: 15.6 mg/dL
CRE [3]: 0.1 mg/dL
Ca [3]: 10.6 mg/dL
Cl [3]: 105.6 meq/L
DBIL [3]: 0 mg/dL
IP [3]: 7.1 mg/dL
LDH [3]: 139.4 IU/L
Na [3]: 142.6 meq/L
PL [3]: 146.6 mg/dL
RALB [3]: 3.1 g/dL
TBIL [3]: 0.004 mg/dL
TC [3]: 66 mg/dL
TG [3]: 194 mg/dL
TP [3]: 5.8 g/dL
gamma-GTP [3]: 2 IU/L
ALP [4]: 1162.8 IU/L
ALT [4]: 55 IU/L
AST [4]: 85.2 IU/L
BUN [4]: 17 mg/dL
CRE [4]: 0.2 mg/dL
Ca [4]: 10.7 mg/dL
Cl [4]: 106.4 meq/L
DBIL [4]: 0 mg/dL
IP [4]: 6.7 mg/dL
LDH [4]: 190.2 IU/L
Na [4]: 140.6 meq/L
PL [4]: 151 mg/dL
RALB [4]: 2.9 g/dL
TBIL [4]: 0.012 mg/dL
TC [4]: 79.6 mg/dL
TG [4]: 112.4 mg/dL
TP [4]: 5.9 g/dL
gamma-GTP [4]: 2.2 IU/L
TERMINAL_BW [5]: 214.9 g
APTT [5]: 22.4 s
Bas [5]: 0%
Eos [5]: 0.8%
Fbg [5]: 351.2 mg/dL
Ht [5]: 42.4%
Lym [5]: 73.2%
MCHC [5]: 32.4%
MCV [5]: 62.3 fL
Mono [5]: 2%
PT [5]: 15.6 s
Plat [5]: 129.4 x10_4/uL
RBC [5]: 681.2 x10_4/ul
Ret [5]: 3.3%
WBC [5]: 80.5 x10_2/uL
KIDNEY_L [5]: 0.9 g
KIDNEY_R [5]: 1 g
KIDNEY_TOTAL [5]: 1.9 g
LIVER [5]: 9.5 g
ALP [5]: 1597.6 IU/L
ALT [5]: 40.4 IU/L
AST [5]: 70.2 IU/L
BUN [5]: 12.8 mg/dL
CRE [5]: 0.2 mg/dL
Ca [5]: 10.8 mg/dL
Cl [5]: 107.2 meq/L
DBIL [5]: 0 mg/dL
IP [5]: 7.4 mg/dL
LDH [5]: 182.6 IU/L
Na [5]: 143 meq/L
PL [5]: 137.8 mg/dL
RALB [5]: 2.9 g/dL
TBIL [5]: 0 mg/dL
TC [5]: 74.4 mg/dL
TG [5]: 83.6 mg/dL
TP [5]: 5.5 g/dL
gamma-GTP [5]: 1.4 IU/L
TERMINAL_BW [6]: 229.8 g
TERMINAL_BW [7]: 278.8 g
TERMINAL_BW [8]: 316.5 g
APTT [6]: 23.9 s
Bas [6]: 0%
Eos [6]: 1.2%
Fbg [6]: 346.8 mg/dL
Ht [6]: 41.6%
Lym [6]: 74.4%
MCHC [6]: 33.3%
MCV [6]: 60.2 fL
Mono [6]: 3%
PT [6]: 15.7 s
Plat [6]: 112.7 x10_4/uL
RBC [6]: 691.2 x10_4/ul
Ret [6]: 4.2%
WBC [6]: 123.8 x10_2/uL
APTT [7]: 25.3 s
Bas [7]: 0%
Eos [7]: 1%
Fbg [7]: 316.4 mg/dL
Ht [7]: 41.7%
Lym [7]: 79.4%
MCHC [7]: 32.7%
MCV [7]: 58.7 fL
Mono [7]: 1.8%
PT [7]: 15.2 s
Plat [7]: 102.3 x10_4/uL
RBC [7]: 710.4 x10_4/ul
Ret [7]: 4.4%
WBC [7]: 103 x10_2/uL
APTT [8]: 26 s
Bas [8]: 0%
Eos [8]: 1.2%
Fbg [8]: 345.5 mg/dL
Ht [8]: 44.9%
Lym [8]: 79%
MCHC [8]: 33.7%
MCV [8]: 55.6 fL
Mono [8]: 2.5%
PT [8]: 15.3 s
Plat [8]: 98.6 x10_4/uL
RBC [8]: 808.8 x10_4/ul
Ret [8]: 2.4%
WBC [8]: 105 x10_2/uL
KIDNEY_L [6]: 1 g
KIDNEY_R [6]: 1 g
KIDNEY_TOTAL [6]: 2 g
KIDNEY_L [7]: 1.1 g
KIDNEY_R [7]: 1.2 g
KIDNEY_TOTAL [7]: 2.3 g
KIDNEY_L [8]: 1.2 g
KIDNEY_R [8]: 1.3 g
KIDNEY_TOTAL [8]: 2.5 g
LIVER [6]: 11 g
LIVER [7]: 12.8 g
LIVER [8]: 13.4 g
ALP [6]: 1394 IU/L
ALT [6]: 45 IU/L
AST [6]: 67.2 IU/L
BUN [6]: 14.8 mg/dL
CRE [6]: 0.2 mg/dL
Ca [6]: 10.8 mg/dL
Cl [6]: 105.4 meq/L
DBIL [6]: 0 mg/dL
IP [6]: 8 mg/dL
LDH [6]: 160.8 IU/L
Na [6]: 141.6 meq/L
PL [6]: 170.6 mg/dL
RALB [6]: 2.9 g/dL
TBIL [6]: 0 mg/dL
TC [6]: 80.6 mg/dL
TG [6]: 195.4 mg/dL
TP [6]: 5.4 g/dL
gamma-GTP [6]: 1.4 IU/L
ALP [7]: 1544.2 IU/L
ALT [7]: 44 IU/L
AST [7]: 68 IU/L
BUN [7]: 15.2 mg/dL
CRE [7]: 0.1 mg/dL
Ca [7]: 10.6 mg/dL
Cl [7]: 104.2 meq/L
DBIL [7]: 0 mg/dL
IP [7]: 7.9 mg/dL
LDH [7]: 149.6 IU/L
Na [7]: 143.2 meq/L
PL [7]: 149.6 mg/dL
RALB [7]: 3 g/dL
TBIL [7]: 0.002 mg/dL
TC [7]: 74.4 mg/dL
TG [7]: 147.2 mg/dL
TP [7]: 5.6 g/dL
gamma-GTP [7]: 1.6 IU/L
ALP [8]: 1456 IU/L
ALT [8]: 66 IU/L
AST [8]: 98.2 IU/L
BUN [8]: 17.5 mg/dL
CRE [8]: 0.2 mg/dL
Ca [8]: 10.4 mg/dL
Cl [8]: 106 meq/L
DBIL [8]: 0 mg/dL
IP [8]: 6.6 mg/dL
LDH [8]: 170.5 IU/L
Na [8]: 141.2 meq/L
PL [8]: 152.5 mg/dL
RALB [8]: 3 g/dL
TBIL [8]: 0 mg/dL
TC [8]: 75.5 mg/dL
TG [8]: 165.2 mg/dL
TP [8]: 5.8 g/dL
gamma-GTP [8]: 2 IU/L
